Results from PubChem BioAssay (NCI).
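Following 48 hours of exposure in 96-well plates, responses at five concentrations were used to interpolate endpoints linearly. GI50 is the concentration that inhibits growth by half. TGI denotes the concentration required for complete inhibition of growth.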

How the values were obtained:
Assay in all cases: NCI tumour cell line growth inhibition, 48 h
RPMI-8226 leukemia = test system: RPMI-8226 leukemia
A549 NSCLC = test system: A549 NSCLC
NCI-H226 lung = test system: NCI-H226 lung
SF-539 CNS = test system: SF-539 CNS
OVCAR-5 ovarian = test system: OVCAR-5 ovarian
MOLT-4 leukemia = test system: MOLT-4 leukemia

SMILES | TGI (RPMI-8226 leukemia) [µM] | TGI (A549 NSCLC) [µM] | TGI (NCI-H226 lung) [µM] | TGI (SF-539 CNS) [µM] | TGI (OVCAR-5 ovarian) [µM] | TGI (MOLT-4 leukemia) [µM] | GI50 (RPMI-8226 leukemia) [µM] | GI50 (A549 NSCLC) [µM] | GI50 (SF-539 CNS) [µM] | GI50 (OVCAR-5 ovarian) [µM] | GI50 (MOLT-4 leukemia) [µM] | GI50 (NCI-H226 lung) [µM]
CCOC(=O)C12CCCC1(O)N(NC(=O)OC(C)(C)C)C(C)=C2C(=O)OC (stereo not given) | > 100 | > 100 | > 100 | > 100 | > 100 | > 100 |  |  |  |  |  | 
CCc1ccccc1NC(=O)C1=C(C)NC(C)=C(C(=O)Nc2ccccc2CC)C1c1ccccc1Cl | > 100 | > 100 | > 100 | > 100 | > 100 | > 100 |  |  |  |  |  | 
O=C(O)CCCSC(=O)Nc1ccc(N=Nc2ccccc2)cc1 | > 100 | > 100 | > 100 | > 100 | > 100 | > 100 |  |  |  |  |  | 
CCOC(=O)c1nn2c(nc1=O)sc1ccc3ccccc3c12 | > 100 | > 100 | > 100 | > 100 | > 100 | > 100 |  |  |  |  |  | 
COC1=C(N)C(=O)c2nc(C)ccc2C1=O | > 40.8 | 4.57 | 2.33 | 3.35 | 3.43 | > 52.9 |  |  |  |  |  | 
N.N.N.N.[Co+3].[N-]=[N+]=[N-].[N-]=[N+]=[N-].[N-]=[N+]=[N-] | > 100 | > 100 |  | > 100 | > 100 | > 100 | > 100 | > 100 | 26.6 | > 100 | 36 | 
O=C1CC(O)CC(=O)C1=C(O)CCCCCCCCCCc1ccccc1 (stereo not given) | > 100 | > 100 | 94.7 | > 100 | > 100 | > 100 |  |  |  |  |  | 
N.N.N.N.N.NC(=O)c1nn[n-]n1.[Cl-].[Co+3] | > 100 | > 100 |  | > 100 | > 100 | > 100 | > 100 | > 100 | > 100 | > 100 | > 100 | 
COC(=O)CC1C[C@H](C#N)N(C(=O)c2ccccc2)C[C@@H]1CC[N+](=O)[O-] (stereo not given in full) | > 100 | > 100 |  | > 100 | > 100 | > 100 |  |  |  |  |  | 
CN(O)C(=O)SCC(NC(=O)CCC(N)C(=O)O)C(=O)NCC(=O)O (stereo not given) | > 2000 | > 2000 | > 2000 | > 2 | > 2 | > 2000 | > 2000 | > 2000 |  |  | > 2 | > 2000
O=C(NCCCCNc1cccccc1=O)OCc1ccccc1 | > 100 | > 100 | > 100 |  | > 100 | > 100 |  |  |  |  |  | 
CCN(CC)c1c(C(=O)/C=C/c2ccc(Cl)cc2)c(-c2ccccc2)nn(C)c1=O | 5.2 | 3.89 | 4.4 |  | 3.23 | 5.06 |  |  |  |  |  | 
O=C(COc1ccc(Cl)cc1)N1N=C(c2ccc(Cl)cc2)CC1(O)c1ccccc1 (stereo not given) | > 37.6 | 34.7 | 48.1 | > 59.4 | 45.3 | 30.6 |  |  |  |  |  | 
CC1=C(C(=O)Nc2cc(=O)n(C)c(=O)n2C)C(c2ccco2)C(C(=O)Nc2cc(=O)n(C)c(=O)n2C)=C(C)N1 | > 100 | > 100 | > 100 | > 100 | > 100 | > 100 |  |  |  |  |  | 
O=[N+]([O-])c1ccc(C[P+](c2ccccc2)(c2ccccc2)c2ccccc2)cc1 | > 100 | > 100 | > 100 | > 100 | > 100 | > 100 |  |  |  |  |  | 
CCCCCCCCCCCc1nnc(N)o1 | > 100 | > 100 | > 100 | > 100 | > 100 | > 100 |  |  |  |  |  | 
O=C(O)C1=C(O)C(C(=O)O)C23CCCCCCCCCCC12C(C(=O)O)C(O)=C3C(=O)O (stereo not given) | > 100 | > 100 | > 100 | > 100 | > 100 | > 100 |  |  |  |  |  | 
COc1ccc(C23C(=O)c4ccccc4N2O[C@H]2C(=O)N(c4ccccc4)C(=O)[C@H]23)cc1 (stereo not given in full) | > 100 | > 100 | > 100 | > 100 | > 100 | > 100 |  |  |  |  |  | 
Cc1cc(CC(=O)NCCO)n(CCO)c(=O)c1 |  | > 100 |  | > 100 | > 100 | > 100 |  |  |  |  |  | 
O=C1N(C2CCCCC2)CC12CCCCC2 | > 100 | > 100 | > 100 | > 100 |  | > 100 |  |  |  |  |  | 
O=C(O)CCC(=O)N1c2ccccc2CC1c1c[nH]c2ccccc12 (stereo not given) | > 100 | > 100 | > 100 | > 100 | > 100 | > 100 |  |  |  |  |  | 
Cc1nnn[n-]1.N.N.N.N.N.[Cl-].[Co+3] | > 100 | > 100 | > 100 | > 100 | > 100 | > 100 | > 100 | > 100 | > 100 | > 100 | > 100 | > 100
COC(=O)NC(=O)c1cn(C2OC(CO)C(O)C2O)c(=O)[nH]c1=O (stereo not given) | > 100 | > 100 | > 100 | > 100 | > 100 | > 100 |  |  |  |  |  | 
